Assay results reported in US12637432B2, “Inhibitors of ACK1/TNK2 tyrosine kinase” (H. LEE MOFFITT CANCER CENTER AND RESEARCH INSTITUTE, INC., priority 2020, dated 2026).

Biological target: T1, ACK1 (Homo sapiens, UniProt Q07912)
T1 construct: purchased Reaction Biology
Assay: Reaction Biology 33P Hotspot assay
Assay type: biochemical

T1 sequence (Q07912 whole entry): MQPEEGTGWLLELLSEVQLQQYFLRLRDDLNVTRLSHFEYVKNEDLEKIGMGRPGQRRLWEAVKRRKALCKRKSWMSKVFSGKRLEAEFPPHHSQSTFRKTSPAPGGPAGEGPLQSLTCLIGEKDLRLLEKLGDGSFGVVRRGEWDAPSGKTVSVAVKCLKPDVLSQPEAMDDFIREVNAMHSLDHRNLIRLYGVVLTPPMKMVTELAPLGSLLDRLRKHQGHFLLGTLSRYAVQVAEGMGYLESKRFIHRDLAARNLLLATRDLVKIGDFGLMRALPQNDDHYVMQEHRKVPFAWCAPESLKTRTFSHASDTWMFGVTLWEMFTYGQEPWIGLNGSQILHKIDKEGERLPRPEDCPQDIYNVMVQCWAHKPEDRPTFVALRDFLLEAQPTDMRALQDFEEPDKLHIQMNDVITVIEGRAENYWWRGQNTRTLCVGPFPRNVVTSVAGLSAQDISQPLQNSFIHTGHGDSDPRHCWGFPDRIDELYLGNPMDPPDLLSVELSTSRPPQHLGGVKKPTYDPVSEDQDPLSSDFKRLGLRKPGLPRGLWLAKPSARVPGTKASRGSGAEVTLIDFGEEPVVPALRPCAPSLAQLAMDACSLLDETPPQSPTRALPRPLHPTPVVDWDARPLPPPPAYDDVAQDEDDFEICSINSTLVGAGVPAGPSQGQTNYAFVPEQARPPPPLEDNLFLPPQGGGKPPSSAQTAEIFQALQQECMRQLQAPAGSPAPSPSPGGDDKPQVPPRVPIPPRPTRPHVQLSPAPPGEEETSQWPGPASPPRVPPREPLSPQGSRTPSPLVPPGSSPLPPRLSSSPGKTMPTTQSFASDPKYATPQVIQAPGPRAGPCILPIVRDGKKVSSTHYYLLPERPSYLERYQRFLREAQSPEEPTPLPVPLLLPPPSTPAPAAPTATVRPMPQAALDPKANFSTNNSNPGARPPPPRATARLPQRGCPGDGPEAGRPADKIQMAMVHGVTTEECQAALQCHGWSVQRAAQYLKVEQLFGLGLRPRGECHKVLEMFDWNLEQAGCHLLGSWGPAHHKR

Row | IC50 [nM] | Compound
1 | 232 | CC(C)Oc1cc(-c2cnn(C)c2)ccc1Nc1ncc(Cl)c(NCC2CCOCC2)n1 [5-chloro-N^2-(2-isopropoxy-4-(1-methyl-1H-pyrazol-4-yl)phenyl)-N^4-((tetrahydro-2H-pyran-4-yl)methyl)pyrimidine-2,4-diamine]
2 | 27.6 | COc1cc(Nc2ncc(Cl)c(NCC3CCOCC3)n2)ccc1-c1cnn(C)c1 [5-chloro-N^2-(3-methoxy-4-(1-methyl-1H-pyrazol-4-yl)phenyl)-N^4-((tetrahydro-2H-pyran-4-yl)methyl)pyrimidine-2,4-diamine]
3 | 55.3 | CN1CCN(c2ccc(Nc3ncc(Cl)c(NCC4CCOCC4)n3)c(O)c2)CC1 [2-((5-chloro-4-(((tetrahydro-2H-pyran-4-yl)methyl)amino)pyrimidin-2-yl)amino)-5-(4-methylpiperazin-1-yl)phenol]
4 | 90 | Clc1cnc(Nc2cnn(C3CCOCC3)c2)nc1NCC1CCOCC1 [5-chloro-N^2-(1-(tetrahydro-2H-pyran-4-yl)-1H-pyrazol-4-yl)-N^4-((tetrahydro-2H-pyran-4-yl)methyl)pyrimidine-2,4-diamine]
5 | 40.4 | COc1cc(Nc2ncc(Cl)c(NC[C@H]3CCCO3)n2)ccc1-c1cnn(C)c1 [(R)-5-chloro-N^2-(3-methoxy-4-(1-methyl-1H-pyrazol-4-yl)phenyl)-N^4-((tetrahydrofuran-2-yl)methyl)pyrimidine-2,4-diamine]
6 | 352 | CC[C@@H](Nc1nc(Nc2ccc(C3CCN(C)CC3)c(OC(C)C)c2)ncc1Cl)C1CCOCC1 [(R)-5-chloro-N^2-(3-isopropoxy-4-(1-methylpiperidin-4-yl)phenyl)-N^4-(1-(tetrahydro-2H-pyran-4-yl)propyl)pyrimidine-2,4-diamine]
7 | 34.9 | COc1cc(-n2cccn2)ccc1Nc1ncc(Cl)c(NCC2CCOCC2)n1 [5-chloro-N^2-(2-methoxy-4-(1H-pyrazol-1-yl)phenyl)-N^4-((tetrahydro-2H-pyran-4-yl)methyl)pyrimidine-2,4-diamine]
8 | 38.1 | COc1cc(-c2cnn(C)c2)ccc1Nc1ncc(Cl)c(NCC2CCOCC2)n1 [5-chloro-N^2-(2-methoxy-4-(1-methyl-1H-pyrazol-4-yl)phenyl)-N^4-((tetrahydro-2H-pyran-4-yl)methyl)pyrimidine-2,4-diamine]
9 | 128 | Cn1cc(-c2ccc(Nc3ncc(Cl)c(NC[C@H]4CCCO4)n3)cc2)cn1 [(R)-5-chloro-N^2-(4-(1-methyl-1H-pyrazol-4-yl)phenyl)-N^4-((tetrahydrofuran-2-yl)methyl)pyrimidine-2,4-diamine]
10 | 138 | CN1CCC(n2cc(Nc3ncc(Cl)c(NCC4CCOCC4)n3)cn2)CC1 [5-chloro-N^2-(1-(1-methylpiperidin-4-yl)-1H-pyrazol-4-yl)-N^4-((tetrahydro-2H-pyran-4-yl)methyl)pyrimidine-2,4-diamine]
11 | 40.8 | CC(C)Oc1cc(Nc2ncc(Cl)c(N[C@H](C)C3CCOCC3)n2)ccc1C1CCN(C)CC1 [(R)-5-chloro-N^2-(3-isopropoxy-4-(1-methylpiperidin-4-yl)phenyl)-N^4-(1-(tetrahydro-2H-pyran-4-yl)ethyl)pyrimidine-2,4-diamine]
12 | 37 | CC(C)Oc1cc(Nc2ncc(Cl)c(N[C@H](C)C3CCOCC3)n2)ccc1N1CCN(C)CC1 [(R)-5-chloro-N^2-(3-isopropoxy-4-(4-methylpiperazin-1-yl)phenyl)-N^4-(1-(tetrahydro-2H-pyran-4-yl)ethyl)pyrimidine-2,4-diamine]
13 | 31 | Cn1cc(-c2ccc(Nc3ncc(Cl)c(NCC4CCOCC4)n3)cc2F)cn1 [5-chloro-N^2-(3-fluoro-4-(1-methyl-1H-pyrazol-4-yl)phenyl)-N^4-((tetrahydro-2H-pyran-4-yl)methyl)pyrimidine-2,4-diamine]
14 | 14.7 | COc1cc(N2CCN(C)CC2)c(F)cc1Nc1ncc(C)c(NCC2CCOCC2)n1 [N^2-(5-fluoro-2-methoxy-4-(4-methylpiperazin-1-yl)phenyl)-5-methyl-N^4-((tetrahydro-2H-pyran-4-yl)methyl)pyrimidine-2,4-diamine]
15 | 69 | Clc1cnc(Nc2ccc(OCC3CCOCC3)cc2)nc1NC[C@H]1CCCO1 [(R)-5-chloro-N^2-(4-((tetrahydro-2H-pyran-4-yl)methoxy)phenyl)-N^4-((tetrahydrofuran-2-yl)methyl)pyrimidine-2,4-diamine]
16 | 69.1 | CN1CCN(Cc2ccc(Nc3ncc(Cl)c(NCC4CCOCC4)n3)cc2)CC1 [5-chloro-N^2-(4-((4-methylpiperazin-1-yl)methyl)phenyl)-N^4-((tetrahydro-2H-pyran-4-yl)methyl)pyrimidine-2,4-diamine]
17 | 34.5 | COc1cc(N2CCN(C)CC2)ccc1Nc1ncc(C)c(NCC2CCOCC2)n1 [N^2-(2-methoxy-4-(4-methylpiperazin-1-yl)phenyl)-5-methyl-N^4-((tetrahydro-2H-pyran-4-yl)methyl)pyrimidine-2,4-diamine]
18 | 64.6 | COc1cc(-n2cccn2)ccc1Nc1ncc(Cl)c(NC[C@H]2CCCO2)n1 [(R)-5-chloro-N^2-(2-methoxy-4-(1H-pyrazol-1-yl)phenyl)-N^4-((tetrahydrofuran-2-yl)methyl)pyrimidine-2,4-diamine]
19 | 46 | Clc1cnc(Nc2ccc(OCC3CCOCC3)cc2)nc1NCC1CCOCC1 [5-chloro-N^2-(4-((tetrahydro-2H-pyran-4-yl)methoxy)phenyl)-N^4-((tetrahydro-2H-pyran-4-yl)methyl)pyrimidine-2,4-diamine]
20 | 23.6 | CC(C)Oc1cc(Nc2ncc(Cl)c(NCC3CCOCC3)n2)ccc1-c1cnn(C)c1 [5-chloro-N^2-(3-isopropoxy-4-(1-methyl-1H-pyrazol-4-yl)phenyl)-N^4-((tetrahydro-2H-pyran-4-yl)methyl)pyrimidine-2,4-diamine]
21 | 84 | Cn1cc(Nc2ncc(Cl)c(NCC3CCOCC3)n2)cn1 [5-chloro-N^2-(1-methyl-1H-pyrazol-4-yl)-N^4-((tetrahydro-2H-pyran-4-yl)methyl)pyrimidine-2,4-diamine]

Row | Compound | IC50 [nM]
22 | Cc1cnc(Nc2cc(F)c(C3CCN(C)CC3)c(F)c2)nc1Nc1ccc(Cl)c(OCC(C)C)c1 [N^4-(4-chloro-3-isobutoxyphenyl)-N^2-(3,5-difluoro-4-(1-methylpiperidin-4-yl)phenyl)-5-methylpyrimidine-2,4-diamine] | 181

Biological target: T1, ACK1
Assay: ACK1 IC50 (Table 1, assay not specified)
Assay type: biochemical

Row | IC50 [nM] | Compound
23 | 56.4 | O=C(COc1cccc2c1C(=O)N(C1CCC(=O)NC1=O)C2=O)NCCCCN1CCN(c2ccc(Nc3ncc(Cl)c(NC[C@H]4CCCO4)n3)cc2)CC1 (stereo partly drawn) [N-(4-(4-(4-((5-chloro-4-((((R)-tetrahydrofuran-2-yl)methyl)amino)pyrimidin-2-yl)amino)phenyl)piperazin-1-yl)butyl)-2-((2-(2,6-dioxopiperidin-3-yl)-1,3-dioxoisoindolin-4-yl)oxy)acetamide]
24 | 137 | COCCn1cc(-c2ccc(Nc3ncc(Cl)c(NC[C@H]4CCCO4)n3)cc2F)cn1 [(R)-5-chloro-N^2-(3-fluoro-4-(1-(2-methoxyethyl)-1H-pyrazol-4-yl)phenyl)-N^4-((tetrahydrofuran-2-yl)methyl)pyrimidine-2,4-diamine]
25 | 56.5 | Clc1cnc(Nc2ccc(OCCN3CCCC3)cc2)nc1NC[C@H]1CCCO1 [(R)-5-chloro-N^2-(4-(2-(pyrrolidin-1-yl)ethoxy)phenyl)-N^4-((tetrahydrofuran-2-yl)methyl)pyrimidine-2,4-diamine]
26 | 78.7 | Fc1cc(Nc2ncc(Cl)c(NC[C@H]3CCCO3)n2)ccc1-c1cnn(C2CCOCC2)c1 [(R)-5-chloro-N^2-(3-fluoro-4-(1-(tetrahydro-2H-pyran-4-yl)-1H-pyrazol-4-yl)phenyl)-N^4-((tetrahydrofuran-2-yl)methyl)pyrimidine-2,4-diamine]
27 | 60.1 | Fc1cc(Nc2ncc(Cl)c(NC[C@H]3CCCO3)n2)ccc1OCCN1CCCC1 [(R)-5-chloro-N^2-(3-fluoro-4-(2-(pyrrolidin-1-yl)ethoxy)phenyl)-N^4-((tetrahydrofuran-2-yl)methyl)pyrimidine-2,4-diamine]

Biological target: T1, ACK1
Assay: ACK1 ELISA % inhibition at 100 nM
Assay type: biochemical

Row | inhibition at 0.1 µM [%] | Compound
28 | 100 | COc1cc(N2CCN(C)CC2)ccc1Nc1ncc(C)c(Nc2cccc(NS(=O)(=O)C(C)(C)C)c2)n1 [N-(3-((2-((2-methoxy-4-(4-methylpiperazin-1-yl)phenyl)amino)-5-methylpyrimidin-4-yl)amino)phenyl)-2-methylpropane-2-sulfonamide]
29 | 31.1 | COc1cc(N2CCN(C)CC2)ccc1Nc1ncc(Cl)c(NCc2ccc(C(F)(F)F)cc2)n1 [5-chloro-N^2-(2-methoxy-4-(4-methylpiperazin-1-yl)phenyl)-N^4-(4-(trifluoromethyl)benzyl)pyrimidine-2,4-diamine]
30 | 50.2 | COc1cc(N2CCN(C)CC2)ccc1Nc1ncc(Cl)c(N[C@H](C)c2ccc(Cl)cc2)n1 [(R)-5-chloro-N^4-(1-(4-chlorophenyl)ethyl)-N^2-(2-methoxy-4-(4-methylpiperazin-1-yl)phenyl)pyrimidine-2,4-diamine]
31 | 17.5 | COc1cc(N2CCN(C)CC2)ccc1Nc1ncc(Cl)c(N[C@@H](C)c2ccc(Cl)cc2)n1 [(S)-5-chloro-N^4-(1-(4-chlorophenyl)ethyl)-N^2-(2-methoxy-4-(4-methylpiperazin-1-yl)phenyl)pyrimidine-2,4-diamine]
32 | 98.7 | COc1cc(N2CCN(C)CC2)ccc1Nc1ncc(C)c(Nc2ccc(Cl)c(NS(=O)(=O)C(C)(C)C)c2)n1 [N-(2-chloro-5-((2-((2-methoxy-4-(4-methylpiperazin-1-yl)phenyl)amino)-5-methylpyrimidin-4-yl)amino)phenyl)-2-methylpropane-2-sulfonamide]
33 | 32 | CN1CCN(c2ccc(Nc3ncc(Cl)c(N(CCc4ccccc4)CC4CCCO4)n3)cc2)CC1 (stereo not shown) [5-chloro-N^2-(4-(4-methylpiperazin-1-yl)phenyl)-N^4-phenethyl-N^4-((tetrahydrofuran-2-yl)methyl)pyrimidine-2,4-diamine]
34 | 38.5 | COc1cc(N2CCN(C)CC2)ccc1Nc1ncc(Cl)c(N(CCc2ccccc2)CC2CCCO2)n1 (stereo not shown) [5-chloro-N^2-(2-methoxy-4-(4-methylpiperazin-1-yl)phenyl)-N^4-phenethyl-N^4-((tetrahydrofuran-2-yl)methyl)pyrimidine-2,4-diamine]
